Measurements from PMC10817170, “Effect of an NHE3 inhibitor in combination with an NPT2b inhibitor on gastrointestinal phosphate absorption in Rodent models” (PLOS ONE, 2024).
Values joined by “and” are separate entries in the source; they are usually repeats but may differ in a detail not shown here. Equal entries are not always repeated.

Legend:
[1] = tested on: T1, NHE3; test: Sodium and phosphate excretion in urine after oral NaH2PO4 bolus in rats; assay type: in vivo; conditions: 4 h urine; for Phosphorus-to-Creatinine / Sodium-to-Creatinine / Total Urinary Phosphorus / Total Urinary Sodium / Urinary-to-Dietary Phosphate / Urinary-to-Dietary Sodium / Urine Volume: NaH2PO4 bolus
T1 construct: from tissue; host or cells: intestine of living SD rats
Procedure: To assess sodium and phosphate absorption in rats, we took advantage of the increase in urinary sodium and phosphate excretion following an oral bolus of sodium phosphate. Thus, an LY3304000 dependent decrease in urinary sodium and phosphate excretion following an oral bolus dose of sodium phosphate is an indirect measurement of the ability of LY3304000 to inhibit sodium and phosphate absorption in intestine. A dosing solution of 3 mg/kg LY3304000 for a 10 mL/kg dose volume was formulated in 1% HEC. The subsequent dosing solutions of 1, 0.3, 0.1, 0.03, 0.01, 0.003, and 0.001 mg/kg LY3304000 were prepared by serial dilutions with 1% HEC. An NaH2PO4 dosing solution at 690 mg/kg with a 20 mL/kg dosing volume was made in sterile water. Male SD rats were fasted for 4 hours with access to water and then orally dosed at 10 mL/kg with 1% HEC vehicle or varying dose of LY3304000 at 0.001, 0.003, 0.01, 0.03, 0.1, 0.3, 1, and 3 mg/kg. In this and subsequent studies where phosphate absorption is measured, a 4 hour fast was used which is less disruptive to the animal’s normal physiology than the 12 hours fast used to measure acute phosphate uptake into plasma. Fifteen minutes later, rats were dosed with either sterile water or NaH2PO4 solution, and then immediately transferred to metabolic cages. Urine samples were collected from the metabolic cages at 4 hours post sterile water or NaH2PO4 dose. The net urine volume was recorded. Urinary sodium, creatinine, and phosphorus (as a measure of phosphate) were determined using a clinical biochemistry analyzer. The urinary sodium-to-creatinine and phosphorus-to-creatinine ratios were calculated and compared between vehicle and LY3304000 treated groups. The ratios of urinary-to-dietary phosphate (measured as phosphorus) and urinary-to-dietary sodium in urine were compared between vehicle and LY3304000 treated groups.

[2] = tested on: acute phosphate uptake into plasma; test: Acute radiolabeled phosphate uptake into plasma in rats; assay type: in vivo
Procedure: A dosing solution for a 10 mg/kg dose of LY3304000 using a 10 mL/kg dosing volume was made in 1% HEC vehicle. The subsequent dosing solutions for 3, 1, 0.3, 0.1, 0.03, 0.01, 0.003, and 0.001 mg/kg were prepared by serial dilutions with HEC. A Radiolabeled Phosphate Dosing Solution was made in a 16.25 mM Na2HPO4, 0.9% saline, pH 7.4, solution with the addition of about 2.5 μCi/mL radioactive phosphate (H3^33PO4, PerkinElmer) and filtered before dosing. Following 12-hour fasting with access to water, male SD rats were orally dosed at 10 mL/kg with either vehicle or varying doses of LY3304000. Fifteen minutes later, 2 mL of the Radiolabeled Phosphate Dosing Solution was dosed by oral gavage. This dose of phosphate was chosen because it approximates the rat equivalent to the amount of bioavailable phosphate in a human meal, 4 mg/kg phosphorus, or 320 mg phosphorus for an 80 kg person on a phosphate restricted diet. Fifteen minutes later, blood was collected by cardiac stick, and plasma was prepared. Radioactivity (dpm) in 50 μL plasma was measured by scintillation counting. To determine the total radioactivity dosed to each rat, the radioactivity in two 10-μL samples of the Radiolabeled Phosphate Dosing Solution was measured by scintillation counting. To calculate the total radioactivity recovered in plasma, it was assumed that total blood volume constitutes about 60% of the body weight and plasma constitutes about 55% of the total blood. The mole amount of phosphate uptake was calculated as the percentage of administered radiolabeled phosphate recovered in the plasma of vehicle or LY3304000 treated rats multiplied by total phosphate amount in the radiolabeled phosphate dosing solution. ED50 values were then determined with a 4-parameter logistic curve fitting model using GraphPad Prism. A 15-minute time point, post phosphate dosing, was chosen for collecting blood in the acute phosphate uptake studies in rats and mice (see below) to capture the initial rate of phosphate absorption. We wanted to avoid measurements at longer time points when plasma radiolabeled phosphate appears to be at a steady state.

Compound: CN1Cc2c(Cl)cc(Cl)cc2[C@H](c2cccc(S(=O)(=O)NCCOCCOCCN/C(=N\C(N)=O)NCCCCN/C(=N/C(N)=O)NCCOCCOCCNS(=O)(=O)c3cccc([C@@H]4CN(C)Cc5c(Cl)cc(Cl)cc54)c3)c2)C1.Cl.Cl [LY3304000, (Z)-[[4-[[(Z)-N’-carbamoyl-N-[2-[2-[2-[[3-[(4S)-6,8-dichloro-2-methyl-3,4-dihydro-1H-isoquinolin-4-yl]phenyl]sulfonylamino]ethoxy]ethoxy]ethyl]carbamimidoyl]amino]butylamino]-[2-[2-[2-[[3-[(4S)-6,8-dichloro-2-methyl-3,4-dihydro-1H-isoquinolin-4-yl]phenyl]sulfonylamino]ethoxy]ethoxy]ethylamino]methylene]urea dihydrochloride]
- Phosphorus-to-Creatinine ([1]; 0.001 mg/kg po): 14 mg/mg
- Sodium-to-Creatinine ([1]; 0.001 mg/kg po): 10 mg/mg
- Total Urinary Phosphorus ([1]; 0.001 mg/kg po): 12501 µg
- Total Urinary Sodium ([1]; 0.001 mg/kg po): 9084 µg
- Urinary-to-Dietary Phosphate ([1]; 0.001 mg/kg po): 0.337
- Urinary-to-Dietary Sodium ([1]; 0.001 mg/kg po): 0.326
- Urine Volume ([1]; 0.001 mg/kg po): 4 mL
- Phosphorus-to-Creatinine ([1]; 0.003 mg/kg po): 14.1 mg/mg
- Sodium-to-Creatinine ([1]; 0.003 mg/kg po): 12.2 mg/mg
- Total Urinary Phosphorus ([1]; 0.003 mg/kg po): 12997 µg
- Total Urinary Sodium ([1]; 0.003 mg/kg po): 11429 µg
- Urinary-to-Dietary Phosphate ([1]; 0.003 mg/kg po): 0.350
- Urinary-to-Dietary Sodium ([1]; 0.003 mg/kg po): 0.413
- Urine Volume ([1]; 0.003 mg/kg po): 4.6 mL
- Phosphorus-to-Creatinine ([1]; 0.01 mg/kg po): 15 mg/mg
- Sodium-to-Creatinine ([1]; 0.01 mg/kg po): 9.8 mg/mg
- Total Urinary Phosphorus ([1]; 0.01 mg/kg po): 12066 µg
- Total Urinary Sodium ([1]; 0.01 mg/kg po): 8104 µg
- Urinary-to-Dietary Phosphate ([1]; 0.01 mg/kg po): 0.320
- Urinary-to-Dietary Sodium ([1]; 0.01 mg/kg po): 0.290
- Urine Volume ([1]; 0.01 mg/kg po): 3.8 mL
- Phosphorus-to-Creatinine ([1]; 0.03 mg/kg po): 13 mg/mg
- Sodium-to-Creatinine ([1]; 0.03 mg/kg po): 9.8 mg/mg
- Total Urinary Phosphorus ([1]; 0.03 mg/kg po): 9961 µg
- Total Urinary Sodium ([1]; 0.03 mg/kg po): 7637 µg
- Urinary-to-Dietary Phosphate ([1]; 0.03 mg/kg po): 0.268
- Urinary-to-Dietary Sodium ([1]; 0.03 mg/kg po): 0.276
- Urine Volume ([1]; 0.03 mg/kg po): 2.7 mL
- Phosphorus-to-Creatinine ([1]; 0.1 mg/kg po): 12.3 mg/mg
- Sodium-to-Creatinine ([1]; 0.1 mg/kg po): 5.3 mg/mg
- Total Urinary Phosphorus ([1]; 0.1 mg/kg po): 7247 µg
- Total Urinary Sodium ([1]; 0.1 mg/kg po): 2850 µg
- Urinary-to-Dietary Phosphate ([1]; 0.1 mg/kg po): 0.197
- Urinary-to-Dietary Sodium ([1]; 0.1 mg/kg po): 0.105
- Urine Volume ([1]; 0.1 mg/kg po): 1.7 mL
- Phosphorus-to-Creatinine ([1]; 0.3 mg/kg po): 12 mg/mg
- Sodium-to-Creatinine ([1]; 0.3 mg/kg po): 2.4 mg/mg
- Total Urinary Phosphorus ([1]; 0.3 mg/kg po): 6250 µg
- Total Urinary Sodium ([1]; 0.3 mg/kg po): 1095 µg
- Urinary-to-Dietary Phosphate ([1]; 0.3 mg/kg po): 0.168
- Urinary-to-Dietary Sodium ([1]; 0.3 mg/kg po): 0.039
- Urine Volume ([1]; 0.3 mg/kg po): 1 mL
- Phosphorus-to-Creatinine ([1]; 1 mg/kg po): 11.3 mg/mg
- Sodium-to-Creatinine ([1]; 1 mg/kg po): 2.4 mg/mg
- Total Urinary Phosphorus ([1]; 1 mg/kg po): 7081 µg
- Total Urinary Sodium ([1]; 1 mg/kg po): 1400 µg
- Urinary-to-Dietary Phosphate ([1]; 1 mg/kg po): 0.191
- Urinary-to-Dietary Sodium ([1]; 1 mg/kg po): 0.051
- Urine Volume ([1]; 1 mg/kg po): 1.4 mL
- Phosphorus-to-Creatinine ([1]; 3 mg/kg po): 9.5 mg/mg
- Total Urinary Phosphorus ([1]; 3 mg/kg po): 5346 µg
- Total Urinary Sodium ([1]; 3 mg/kg po): 612 µg
- Urinary-to-Dietary Phosphate ([1]; 3 mg/kg po): 0.144
- Urinary-to-Dietary Sodium ([1]; 3 mg/kg po): 0.022
- Urine Volume ([1]; 3 mg/kg po): 1 mL
- Sodium-to-Creatinine ([1]; 3 mg/kg po, 3 mg/kg): 1.0 ± 0.4 mg/mg and 1 mg/mg
- ED50, urinary phosphorus excretion ([1]; urinary-to-dietary phosphorus): 0.041 mg/kg
- ED50, urinary sodium excretion ([1]; urinary-to-dietary sodium): 0.058 mg/kg
- maximal inhibition of phosphate uptake [2]: 37%
- ED50 ([2]; Rattus norvegicus, po, 0.25 h, oral, plasma 15 min post 33P phosphate, read-out: ED50 (decrease of phosphate uptake)): 0.04 mg/kg
- Emax, Pi uptake ([2]; curve fit): 266.8 nmol
- ED50 (decrease of phosphate uptake) ([2]; oral, plasma 15 min post 33P phosphate): 0.041 mg/kg
- radiolabeled phosphate in plasma, maximal determined decrease ([2]; vehicle 416 nmoles): 264 nmol
